# According to patent US10975081B2, “Substituted fused pyrazole compounds and their use as LRRK2 inhibitors” (GlaxoSmithKline Intellectual Property Development Limited, priority 2015, dated 2021):
# Biological target: LRRK2 Ser935 phosphorylation in SH-SY5Y cells over-expressing recombinant full length LRRK2 (Homo sapiens (Human), UniProt Q5S007)
# Test: Recombinant cellular LRRK2 AlphaScreen assay
# Type: cell-based
# Conditions: 60 minutes, read-out: Recombinant cellular LRRK2 alphaScreen assay (pIC50) (converted)
# Description: To determine the activity of compounds against LRRK2 kinase activity in cells, the observed LRRK2 kinase-dependent modulation of LRRK2 Ser 935 phosphorylation (Dzamko et al., 2010, Biochem. J. 430: 405-413) was utilized to develop a quantitative 384 well plate-based immunoassay of LRRK2 Ser935 phosphorylation in the human neuroblastoma cell line SH-SY5Y, engineered to over-express recombinant full length LRRK2 protein.
# A BacMam virus expressing full length recombinant LRRK2 was purchased from Invitrogen and amplified by inoculation of SF-9 cells at MOI 0.3 for 4-5 days in Sf-900 III SFM medium supplemented with 3% fetal bovine serum. Infected cell cultures were then centrifuged at 2000 g for 20 minutes, viral supernatant titer determined by anti-gp64 plaque assay and stored at 4° C.
# Affinity-purified anti-phospho LRRK2 Ser935 sheep polyclonal antibody (Dzamko et al., 2010, Biochem. J. 430: 405-413) was biotinylated by standard methods (PerkinElmer). Anti-LRRK2 rabbit polyclonal antibody was purchased from Novus Biologicals. AlphaScreen Protein A IgG Kit (including acceptor and donor beads) was purchased from Perkin Elmer.
# SH-SY5Y cells were grown in DMEM/F12 medium with 10% dialysed fetal bovine serum and harvested by treatment with 0.5% trypsin-EDTA for 5 minutes at 37° C. followed by centrifugation at 1000 rpm for 4 minutes. The cell pellet was resuspended in Opti-MEM reduced serum media (Invitrogen) at 200,000 cells/ml and mixed with the BacMam LRRK2 virus at M01=50. 50 μl cell solutions were then dispensed to each well of a 384-well plate and incubated at 37° C., 5% CO2 for 24 hours.
# Serial dilutions of test compounds were prepared in Opti-MEM reduced serum media (Invitrogen) and 5.6 ul transferred from compound plate to cell assay plate to achieve a top final assay concentration of 10 uM. DMSO was used in certain wells as controls. Cells were incubated at 37° C., 5% CO2 for 60 minutes. The medium was then removed and cells lysed by addition of 20 ul cell lysis buffer (Cell Signaling Technology) and incubation at 4° C. for 20 minutes. 10 ul of antibody/acceptor bead mix [( 1/1000 biotinylated-pS935 LRRK2 antibody, 1/1000 total-LRRK2 antibody, 1/100 Acceptor beads in AlphaScreen detection buffer (25 mM Hepes (pH 7.4), 0.5% Triton X-100, 1 mg/ml Dextran 500 and 0.1% BSA)] was then added to each well and plates incubated for 2 hours at ambient temperature in the dark. 10 μl of donor beads solution (1/33.3 donor beads in AlphaScreen detection buffer) was then added to each well. Following incubation for a further 2 hours at ambient temperature in the dark, plates were read on an EnVision™ plate reader at emission 520-620 nm with excitation 680 nm. Dose response curve data was based on sigmoidal dose-response model.
# Chain of LRRK2 Ser935 phosphorylation in SH-SY5Y cells over-expressing recombinant full length LRRK2 (Q5S007 whole entry): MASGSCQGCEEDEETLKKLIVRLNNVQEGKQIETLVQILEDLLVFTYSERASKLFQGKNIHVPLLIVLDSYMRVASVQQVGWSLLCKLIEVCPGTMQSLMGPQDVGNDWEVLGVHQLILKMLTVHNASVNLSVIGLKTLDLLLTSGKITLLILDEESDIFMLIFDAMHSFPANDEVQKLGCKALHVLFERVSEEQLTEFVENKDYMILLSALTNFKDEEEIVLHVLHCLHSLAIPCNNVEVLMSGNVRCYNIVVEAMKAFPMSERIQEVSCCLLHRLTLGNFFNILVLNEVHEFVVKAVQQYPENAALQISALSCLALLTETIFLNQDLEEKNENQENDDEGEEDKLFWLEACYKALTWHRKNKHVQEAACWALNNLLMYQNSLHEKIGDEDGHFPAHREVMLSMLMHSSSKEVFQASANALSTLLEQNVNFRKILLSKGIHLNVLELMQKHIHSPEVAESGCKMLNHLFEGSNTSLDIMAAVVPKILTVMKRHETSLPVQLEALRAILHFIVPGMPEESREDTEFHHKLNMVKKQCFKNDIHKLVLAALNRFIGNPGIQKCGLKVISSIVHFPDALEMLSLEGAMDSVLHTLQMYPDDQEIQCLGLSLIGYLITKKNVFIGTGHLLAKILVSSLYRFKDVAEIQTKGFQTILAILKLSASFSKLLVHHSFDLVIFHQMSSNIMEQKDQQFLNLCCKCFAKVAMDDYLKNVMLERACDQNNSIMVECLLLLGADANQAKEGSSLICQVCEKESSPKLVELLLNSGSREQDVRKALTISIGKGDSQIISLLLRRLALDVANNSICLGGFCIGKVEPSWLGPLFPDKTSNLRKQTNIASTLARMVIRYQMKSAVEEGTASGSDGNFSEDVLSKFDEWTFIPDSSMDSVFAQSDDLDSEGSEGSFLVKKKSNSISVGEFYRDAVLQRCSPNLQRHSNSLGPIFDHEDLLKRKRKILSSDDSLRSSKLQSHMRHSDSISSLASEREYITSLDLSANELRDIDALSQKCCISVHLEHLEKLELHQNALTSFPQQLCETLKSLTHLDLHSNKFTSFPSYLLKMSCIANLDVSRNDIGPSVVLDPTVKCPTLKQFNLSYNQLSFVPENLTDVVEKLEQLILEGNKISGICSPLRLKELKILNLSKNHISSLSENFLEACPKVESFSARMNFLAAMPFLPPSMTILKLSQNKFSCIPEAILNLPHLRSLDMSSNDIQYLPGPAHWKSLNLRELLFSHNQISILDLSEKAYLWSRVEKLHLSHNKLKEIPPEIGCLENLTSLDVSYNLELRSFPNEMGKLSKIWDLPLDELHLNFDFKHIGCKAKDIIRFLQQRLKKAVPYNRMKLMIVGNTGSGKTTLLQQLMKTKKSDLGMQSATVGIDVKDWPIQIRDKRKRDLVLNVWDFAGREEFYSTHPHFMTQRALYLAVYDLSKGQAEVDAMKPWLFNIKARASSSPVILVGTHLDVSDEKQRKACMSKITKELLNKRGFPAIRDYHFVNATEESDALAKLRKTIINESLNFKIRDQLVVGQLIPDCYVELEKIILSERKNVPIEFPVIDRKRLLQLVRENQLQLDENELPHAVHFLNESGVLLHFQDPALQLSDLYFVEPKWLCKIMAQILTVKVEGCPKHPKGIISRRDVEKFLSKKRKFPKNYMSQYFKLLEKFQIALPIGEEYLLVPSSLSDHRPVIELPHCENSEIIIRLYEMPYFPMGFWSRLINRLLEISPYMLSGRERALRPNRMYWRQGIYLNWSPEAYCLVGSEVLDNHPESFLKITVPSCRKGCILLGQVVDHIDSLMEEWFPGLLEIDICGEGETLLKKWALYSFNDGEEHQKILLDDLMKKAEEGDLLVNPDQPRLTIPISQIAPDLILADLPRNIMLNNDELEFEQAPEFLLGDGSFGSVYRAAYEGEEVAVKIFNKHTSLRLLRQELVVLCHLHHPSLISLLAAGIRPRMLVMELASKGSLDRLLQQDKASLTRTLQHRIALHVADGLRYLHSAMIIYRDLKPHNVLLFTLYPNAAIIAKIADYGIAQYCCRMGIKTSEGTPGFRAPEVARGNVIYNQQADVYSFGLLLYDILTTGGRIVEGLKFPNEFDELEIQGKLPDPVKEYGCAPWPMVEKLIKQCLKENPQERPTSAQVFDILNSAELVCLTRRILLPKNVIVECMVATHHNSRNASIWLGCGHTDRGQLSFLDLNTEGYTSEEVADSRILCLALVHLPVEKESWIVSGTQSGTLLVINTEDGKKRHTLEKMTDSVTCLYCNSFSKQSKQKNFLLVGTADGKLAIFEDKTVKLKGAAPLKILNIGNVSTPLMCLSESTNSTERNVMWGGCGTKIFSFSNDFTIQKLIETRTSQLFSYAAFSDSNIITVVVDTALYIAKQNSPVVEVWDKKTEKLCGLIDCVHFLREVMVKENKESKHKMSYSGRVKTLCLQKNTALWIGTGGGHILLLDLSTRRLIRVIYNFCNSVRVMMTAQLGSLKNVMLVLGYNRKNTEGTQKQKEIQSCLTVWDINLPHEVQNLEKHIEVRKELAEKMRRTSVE
row,Structure (SMILES),IC50
1,"Cc1cc2cnn(-c3cc(N4CCOCC4)nc(C#N)n3)c2cc1C1CCN(C)CC1(F)F (single isomer, unassigned) [Example E9, 4-(6-(3,3-Difluoro-1-methylpiperidin-4-yl)-5-methyl-1H-indazol-1-yl)-6-morpholinopyrimidine-2-carbonitrile]",> 10 µM
2,"CCc1nc(N2CCOCC2)cc(-n2ncc3cc(C)c(C4CCN(C)CC4(F)F)cc32)n1 (single isomer, unassigned) [Example E11, 4-(6-(6-(3,3-Difluoro-1-methylpiperidin-4-yl)-5-methyl-1H-indazol-1-yl)-2-ethylpyrimidin-4-yl)morpholine]",> 10 µM
3,"CCOc1nc(N2CCOCC2)cc(-n2ncc3cc(C)c(C4CCN(C5COC5)CC4(F)F)cc32)n1 (single isomer, unassigned) [Example E24, 4-(6-(6-(3,3-Difluoro-1-(oxetan-3-yl)piperidin-4-yl)-5-methyl-1H-indazol-1-yl)-2-ethoxypyrimidin-4-yl)morpholine]",≤ 0.1 µM
4,"Cc1cc2cnn(-c3cc(N4CCOCC4)nc(OC(C)C)n3)c2cc1C1CCN(C2COC2)CC1(F)F (single isomer, unassigned) [Example E25, 4-(6-(6-(3,3-Difluoro-1-(oxetan-3-yl)piperidin-4-yl)-5-methyl-1H-indazol-1-yl)-2-isopropoxypyrimidin-4-yl)morpholine]",> 10 µM
5,"CNC(=O)[C@@H]1CN(c2cc(-n3ncc4cc(C)c(C5CCN(CCOC)CC5F)cc43)ncn2)CCO1 (single isomer, unassigned) [Example E30]",≤ 0.1 µM
6,"Cc1nc(-n2ncc3cc(C)c(C4CCN(C5COC5)CC4F)cc32)cc([C@H]2C[C@@H](O)C2)n1 (single isomer, unassigned) [Example E44, (cis)-(1s,3s)-3-(6-(6-(3-Fluoro-1-(oxetan-3-yl)piperidin-4-yl)-5-methyl-1H-indazol-1-yl)-2-methylpyrimidin-4-yl)cyclobutanol]",≤ 0.1 µM
7,"Cc1cc2cnn(-c3cc(N4CC(O)C4)nc(C4CC4)n3)c2cc1[C@H]1CCN(C)C[C@H]1F (single isomer, unassigned) [Example E46, (cis)-1-(2-Cyclopropyl-6-(6-(3-fluoro-1-methylpiperidin-4-yl)-5-methyl-1H-indazol-1-yl)pyrimidin-4-yl)azetidin-3-ol]",≤ 0.1 µM
8,"Cc1nc(N2CC[C@H](O)C2)cc(-n2ncc3cc(C)c(C4CCN(C)CC4F)cc32)n1 (single isomer, unassigned) [Example E128]",≤ 0.1 µM
9,"Cc1nc(N2CC(O)C2)cc(-n2ncc3cc(C)c(C4CN(C)CCO4)cc32)n1 (single isomer, unassigned) [Example E228, 1-(2-M ethyl-6-(5-methyl-6-(4-methylmorpholin-2-yl)-1H-indazol-1-yl)pyrimidin-4-yl)azetidin-3-ol]",> 10 µM
10,"COc1nc(N2CC(O)C2)cc(-n2ncc3cc(C)c(C4CN(C)CCO4)cc32)n1 (single isomer, unassigned) [Example E229, 1-(2-Methoxy-6-(5-methyl-6-(4-methylmorpholin-2-yl)-1H-indazol-1-yl)pyrimidin-4-yl)azetidin-3-ol]",> 10 µM
11,"Cc1nc(N2CCO[C@@H](CO)C2)cc(-n2ncc3cc(C)c(C4CCCCO4)cc32)n1 (single isomer, unassigned) [Example E245]",> 10 µM
12,"Cc1nc(N2CC(O)C2)cc(-n2ncc3cc(C)c(C4CCOCC4F)cc32)n1 (single isomer, unassigned) [Example E246, 1-(6-(6-(3-Fluorotetrahydro-2H-pyran-4-yl)-5-methyl-1H-indazol-1-yl)-2-methylpyrimidin-4-yl)azetidin-3-ol]",≤ 0.1 µM

# Second part, the compound after the results:
row,IC50,Structure (SMILES)
1,> 10 µM,"Cc1cc2cnn(-c3cc(N4CCOCC4)nc(OC(C)C)n3)c2cc1C1CCN(C)CC1(F)F (single isomer, unassigned) [Example E7, 4-(6-(6-(3,3-Difluoro-1-methylpiperidin-4-yl)-5-methyl-1H-indazol-1-yl)-2-isopropoxypyrimidin-4-yl)morpholine]"
2,≤ 0.1 µM,"CNC(=O)[C@H]1CN(c2cc(-n3ncc4cc(C)c(C5CCN(CCOC)CC5F)cc43)ncn2)CCO1 (single isomer, unassigned) [Example E29]"
3,≤ 0.1 µM,"CNC(=O)[C@@H]1CN(c2cc(-n3ncc4cc(C)c(C5CCN(C6COC6)CC5F)cc43)ncn2)CCO1 (single isomer, unassigned) [Example E34]"
4,≤ 0.1 µM,"CNC(=O)[C@H]1CN(c2cc(-n3ncc4cc(C)c(C5CCN(C6COC6)CC5F)cc43)ncn2)CCO1 (single isomer, unassigned) [Example E35]"
5,> 10 µM,"COc1nc(N2CC(O)C2)cc(-n2ncc3cc(C)c([C@@H]4CN(C)C[C@@H]4F)cc32)n1 (single isomer, unassigned) [Example E74, (cis)-1-(6-(6-(4-Fluoro-1-methylpyrrolidin-3-yl)-5-methyl-1H-indazol-1-yl)-2-methoxypyrimidin-4-yl)azetidin-3-ol]"
6,> 10 µM,"COCCN1CCC(c2ncc3cnn(-c4ccnc(N5CCOCC5)c4)c3n2)C(F)C1 (single isomer, unassigned) [Example E76, (cis)-4-(4-(6-(3-Fluoro-1-(2-methoxyethyl)piperidin-4-yl)-1H-pyrazolo[3,4-d]pyrimidin-1-yl)pyridin-2-yl)morpholine]"
7,> 10 µM,"COc1nc(N2CC(O)C2)cc(-n2ncc3cc(C)c(C4CCN(C)C(=O)C4)cc32)n1 (single isomer, unassigned) [Example E87, 4-(1-(6-(3-Hydroxyazetidin-1-yl)-2-methoxypyrimidin-4-yl)-5-methyl-1H-indazol-6-yl)-1-methylpiperidin-2-one]"
8,≤ 0.1 µM,"Cc1nc(N2CC(OCCO)C2)cc(-n2ncc3cc(C)c([C@H]4CCN(C)C[C@H]4F)cc32)n1 (single isomer, unassigned) [Example E132, (cis)-2-((1-(6-(6-(3-Fluoro-1-methylpiperidin-4-yl)-5-methyl-1H-indazol-1-yl)-2-methylpyrimidin-4-yl)azetidin-3-yl)oxy)ethanol]"
9,≤ 0.1 µM,"CCN1CC[C@H](c2cc3c(cnn3-c3cc(N4CC(O)C4)nc(C)n3)cc2C)[C@H](F)C1 (single isomer, unassigned) [Example E146, (cis)-1-(6-(6-(1-Ethyl-3-fluoropiperidin-4-yl)-5-methyl-1H-indazol-1-yl)-2-methylpyrimidin-4-yl)azetidin-3-ol]"
10,≤ 0.1 µM,"COc1nc(N2CC(O)C(F)C2)cc(-n2ncc3cc(C)c(C4CCN(C5COC5)CC4)cc32)n1 (single isomer, unassigned) [Example E219, (trans)-4-Fluoro-1-(2-methoxy-6-(5-methyl-6-(1-(oxetan-3-yl)piperidin-4-yl)-1H-indazol-1-yl)pyrimidin-4-yl)pyrrolidin-3-ol]"
11,> 10 µM,"COc1nc(N2CC(O)C2)cc(-n2ncc3cc(C)c(C4(F)CCCN(C)C4)cc32)n1 (single isomer, unassigned) [Example E221, 1-(6-(6-(3-Fluoro-1-methylpiperidin-3-yl)-5-methyl-1H-indazol-1-yl)-2-methoxypyrimidin-4-yl)azetidin-3-ol]"
12,> 10 µM,"Cc1nc(N2CCO[C@@H](CO)C2)cc(-n2ncc3cc(C)c(C4CCCOC4)cc32)n1 (single isomer, unassigned) [Example E240]"
13,≤ 0.1 µM,"Cc1nc(N2CCO[C@@H](CO)C2)cc(-n2ncc3cc(C)c(C4CCOCC4F)cc32)n1 (single isomer, unassigned) [Example E250]"
